Results as given in BindingDB's records for doi:10.1021/jm8011036 (Glaxosmithkline, 2008).

Target: Casein kinase I isoform alpha (Homo sapiens, UniProt P48729)
Experiment: Binding affinity to human CK1alpha2

Casein kinase I isoform alpha, sequence (P48729 whole entry, canonical isoform): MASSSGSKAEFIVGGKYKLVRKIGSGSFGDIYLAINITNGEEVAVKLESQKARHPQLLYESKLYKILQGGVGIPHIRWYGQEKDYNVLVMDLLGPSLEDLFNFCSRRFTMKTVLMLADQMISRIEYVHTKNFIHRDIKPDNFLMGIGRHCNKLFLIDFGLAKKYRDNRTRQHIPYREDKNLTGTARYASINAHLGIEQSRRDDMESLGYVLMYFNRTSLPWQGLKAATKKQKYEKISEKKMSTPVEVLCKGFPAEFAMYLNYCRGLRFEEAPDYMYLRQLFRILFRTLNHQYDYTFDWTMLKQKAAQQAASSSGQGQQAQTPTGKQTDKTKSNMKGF

Kd: 225 nM
SMILES: CC(=O)c1c(-c2ccncc2)[nH]c(-c2ccncc2)c1C [1-(4-methyl-2,5-di(pyridin-4-yl)-1H-pyrrol-3-yl)ethanone]
